The results in this text go back to ChEMBL document CHEMBL3797044, “Computer-aided design, synthesis, and biological evaluation of new indole-2-carboxamide derivatives as PI3Kα/EGFR inhibitors” (Bioorg Med Chem Lett, 2016).

The source made the active and inactive calls. The calls are words filed in the database; no cut-off is given here. Some results are limits rather than exact numbers.

One assay concerns K562. Put plainly: Cytotoxicity against human K562 cells assessed as growth inhibition after 24 hrs by MTT assay. As to conditions: K562, 24 h. Format: functional, cell-based.
The next assay deals with MDA-MB-231. Description: Induction of apoptosis in human MDA231 assessed as increase in caspase-3 activity at 120 uM incubated for 48 hrs followed by DEVD-pNA substrate addition by caspase-3 colorimetric assay. In kind it is functional.
The subject of a further assay is HCT-116. Put plainly: Induction of apoptosis in human HCT116 assessed as increase in caspase-3 activity at 120 uM incubated for 48 hrs followed by DEVD-pNA substrate addition by caspase-3 colorimetric assay. Format: functional.

Broadly, the IC50 is the concentration that inhibits the measured activity by half. Turning to `CC(O)c1ccc(NC(=O)c2cc3ccccc3[nH]2)cc1` (stereo not given), the 50% inhibitory concentration (IC50) in the assay with K562 was over 100 µM.

Regarding `O=C(c1ccccc1)c1ccc(NC(=O)c2cc3ccccc3[nH]2)cc1`, in the assay with K562, the IC50 is over 100 µM. `CC(O)c1cccc(NC(=O)c2cc3ccccc3[nH]2)c1` (stereo not given): in the assay on K562, the concentration for half-maximal inhibition (IC50) is over 100 µM. Take `O=C(Nc1cccc(C(O)c2ccccc2)c1)c1cc2ccccc2[nH]1` (stereo not given): the IC50 in the assay on K562 is over 100 µM. For the same compound, the outcome in the assay on MDA-MB-231 and in the assay on HCT-116 was Active. With `O=C(Nc1ccc(C(O)c2ccccc2)cc1)c1cc2ccccc2[nH]1` (stereo not given), the 50% inhibitory concentration (IC50) with K562 was over 100 µM. With `CC(=O)c1ccc(NC(=O)c2cc3ccccc3[nH]2)cc1`, the IC50 in the assay on K562 is over 100 µM. Same read-out and setting: with `CC(=O)c1cccc(NC(=O)c2cc3ccccc3[nH]2)c1` the figure was over 100 µM.

For `O=C(c1ccccc1)c1cccc(NC(=O)c2cc3ccccc3[nH]2)c1`, the IC50 with K562 was over 100 µM.
